Patent US6720353B2, “Plant proanthocyanidin extract effective at inhibiting adherence of bacteria with p-type fimbriae to surfaces” (priority 1997, dated 2004)

How the values were obtained:
P-type E. coli [1] = assay: Hemagglutination assay: inhibition of P-type E. coli-induced agglutination of A+ human red blood cells (HRBC); assay type: cell-based; conditions: for Inhibition of agglutination, HRBC: P-type E. coli, A+ human red blood cells, neutral pH
Description: (§1) Sixty E. coli strains were isolated from the urine of human and animal (dog and cat) patients suffering from urinary tract infections. After determining the fimbrial type of each strain, 5 strains specific for P-type fimbriae, and 5 strains specific for type 1 fimbriae were selected for use in bioactivity testing. Bacterial strains were subcultured in tryptose broth at 37° C. for 16 h. P-type strains were transferred to colonization factor agar (CFA) plates and grown overnight at 37° C. to enhance production of P-type fimbriae. Strains were harvested by centrifugation, washed once and suspended in phosphate-buffered saline solution (PBS) at pH 7.0 at a concentration of 5×10^8 bacteria/mL. […] Therefore, mixtures of P-type strains were used to test for P-type bioactivity, and mixtures of type 1 strains were used to test for type 1 bioactivity. Strains were kept frozen at −70° C. in tryptose broth (30% glycerol) for long-term storage.

P-type E. coli [2] = assay: Latex bead agglutination test (beads coated with synthetic P-type receptor analog Galα1→4Galβ); assay type: cell-based; conditions: for Inhibition of agglutination, P-Receptor: P-type E. coli, latex beads coated with P-type receptor analog
Description: as §1
The fractions were also tested in the P-type receptor bioassay of de Man et al., 1987, J. Clin. Microbiol. 25(2):401-406. Dried Fractions 1-8 were dissolved in PBS, neutralized, and mixed with P-type bacterial suspensions (30 μl fraction to 10 μl of bacterial suspension) on a polystyrene 24-well plate and incubated for 10 min on a rotary shaker. Latex beads coated with a synthetic P-type receptor analog (Galα1→4Galβ) (BACH test, Kabi Vitrum, Stockholm, Sweden) suspended in water at a concentration of 5×10^9 beads/mL were added (10 μl) to each well and incubation continued for 20 min on the rotary shaker. […] (4) uncoated beads and test fractions, and (5) bacteria, coated beads and epicatechin trimer. The control to show agglutination consisted of bacteria and coated beads.

type 1-fimbriated E coli = assay: Yeast (Saccharomyces cerevisiae) agglutination assay; assay type: cell-based; conditions: for Inhibition of agglutination, Yeast Cells: type 1 E. coli, S. cerevisiae
Description: as §1
The fractions were also tested in the bioassay of Eschdat et al., 1978, Biochem. Biophys. Res. Commmun. 85:1551-1559, using yeast cells. Yeast cultures of Saccharomyces cerevisiae were grown in Sabouraud dextrose broth and incubated for 24 hr at 38° C. Yeast cells were transferred to Sabouraud dextrose agar plates and grown under the same conditions. Cells were harvested, washed and suspended in PBS at a concentration of 4×10^8 cells/mL. Ten μl of type 1-fimbriated E coli were mixed with neutralized test fractions (30 μl) in a 24-well polystyrene plate and incubated for 10 min on a rotary shaker. Yeast cell suspension (10 μl) was added to each well and incubated for 5 min. […] The control to show agglutination consisted of bacteria and yeast. Tie results are shown in Table 4 under the column “Yeast Cells” using the same scoring system as described above.

type 1 E. coli [3] = assay: Hemagglutination assay with guinea pig red blood cells (GPRBC); assay type: cell-based
Description: as §1
The inhibition of adherence of type 1 E. coli by the various fractions was tested according to hemagglutination assay for P-type bacteria, except guinea pig red blood cells (GPRBC) were used in place of HRBC. The results are shown in Table 4 under the column GPRBC using the same scoring system as described above.

type 1 E. coli [4] = conditions: cited from earlier work

Compound | Inhibition of agglutination, HRBC (P-type E. coli [1]) | Agglutination in control well (P-type E. coli [1]; bacteria, HRBC and standard) | Inhibition of agglutination, P-Receptor (P-type E. coli [2]) | Agglutination in control well (P-type E. coli [2]; bacteria, coated beads and standard) | Inhibition of agglutination, Yeast Cells (type 1-fimbriated E coli) | Inhibition of agglutination, GPRBC (type 1 E. coli [3]) | Inhibition of type 1 E. coli to uroepithelial cells (type 1 E. coli [4]) | Agglutination in control well (type 1-fimbriated E coli; bacteria, yeast and 1% D-mannose)
Epicatechin Trimer | + | no agglutination or complete inhibition of agglutination | + | no agglutination or complete inhibition of agglutination | − | − |  | 
O=C(CO)[C@@H](O)[C@H](O)[C@H](O)CO [fructose] |  |  |  |  |  |  | responsible for the inhibition | 
O=C[C@@H](O)[C@@H](O)[C@H](O)[C@H](O)CO [1% D-Mannose, D-Mannose] | − |  | − |  | + | + |  | no agglutination or complete inhibition of agglutination
